Assay results: ChEMBL document CHEMBL1240297 (Cancer Res, 2005)
Calls of active or inactive are those of the source. No cut-off for these calls is given here. Where a SMILES comes first, the peptide text is derived from it. The star is where a group is joined. Cbz = O=C(OCc1ccccc1)*

Columns and labels:
[1] = tested on: LP-1; assay: Induction of apoptosis in human LP-1 cells assessed as reduction of Mcl-1 protein level at 300 nM after 16 hrs by immunoblotting; assay type: functional, cell-based
[2] = tested on: LP-1; assay: Induction of apoptosis in human LP-1 cells assessed as increase in level of cleaved PARP at 300 nM after 16 hrs by immunoblotting; assay type: functional, cell-based
[3] = tested on: NCI-H929; assay: Induction of apoptosis in human NCI-H929 cells assessed as reduction of Mcl-1 protein level at 60 uM after 3 hrs by immunoblotting; assay type: functional, cell-based
[4] = Cytotoxicity against human RPM18226 cells after 72 hrs by alamar blue assay; assay type: functional, cell-based; conditions: RPMI-8226, 72 h
[5] = tested on: NCI-H929; assay: Induction of apoptosis in human NCI-H929 cells assessed as reduction of RNA polymerase 2 phosphoserine 5 level at 60 uM after 1.5 hrs by immunoblotting; assay type: functional, cell-based
[6] = tested on: U-266; assay: Cytotoxicity against human U266 cells after 72 hrs by alamar blue assay; assay type: functional, cell-based; conditions: U-266, 72 h
[7] = Selectivity ratio of IC50 for CDK9/cyclin T to IC50 for CDK7/cyclin H
[8] = tested on: LP-1; assay: Cytotoxicity against human LP-1 cells after 72 hrs by alamar blue assay; assay type: functional, cell-based; conditions: LP-1, 72 h
[9] = tested on: NCI-H929; assay: Induction of apoptosis in human NCI-H929 cells assessed as reduction of Hdm2 level at 60 uM after 1.5 hrs by immunoblotting; assay type: functional, cell-based
[10] = tested on: OPM-2; assay: Cytotoxicity against human OPM2 cells after 72 hrs by alamar blue assay; assay type: functional, cell-based; conditions: OPM-2, 72 h
[11] = tested on: NCI-H929; assay: Induction of apoptosis in human NCI-H929 cells assessed as increase in level of cleaved PARP at 60 uM after 5 hrs by immunoblotting; assay type: functional, cell-based
[12] = Selectivity ratio of IC50 for CDK9/cyclin T to IC50 for CDK2/cyclin E
[13] = tested on: NCI-H929; assay: Induction of apoptosis in human NCI-H929 cells assessed as dephosphorylation of pRb at S249/T252 at 60 uM after 1.5 hrs by immunoblotting; assay type: functional, cell-based
[14] = Cytotoxicity against human NCI-H929 cells after 72 hrs by alamar blue assay; assay type: functional, cell-based; conditions: NCI-H929, 72 h
[15] = tested on: NCI-H929; assay: Induction of apoptosis in human NCI-H929 cells assessed as […] slow migrating hyperphosphorylated RNA polymerase 2O form at 60 uM after 1.5 hrs by immunoblotting; assay type: functional, cell-based
[16] = tested on: NCI-H929; assay: Induction of apoptosis in human NCI-H929 cells assessed as changes in Bcl-2 protein level at 60 uM after 3 hrs by immunoblotting; assay type: functional, cell-based
[17] = tested on: NCI-H929; assay: Induction of apoptosis in human NCI-H929 cells assessed as reduction of RNA polymerase 2 phosphoserine 2 level at 60 uM after 1.5 hrs by immunoblotting; assay type: functional, cell-based
[18] = tested on: NCI-H929; assay: Induction of apoptosis in human NCI-H929 cells assessed as fast migrating hypophosphorylated RNA polymerase 2A form at 60 uM after 1.5 hrs by immunoblotting; assay type: functional, cell-based
[19] = tested on: NCI-H929; assay: Induction of apoptosis in human NCI-H929 cells assessed as changes in survivin protein level at 60 uM after 3 hrs by immunoblotting; assay type: functional, cell-based
[20] = tested on: NCI-H929; assay: Induction of apoptosis in human NCI-H929 cells assessed as dephosphorylation of pRb at S249/T252 at 60 uM after 8 hrs by immunoblotting; assay type: functional, cell-based
[21] = tested on: NCI-H929; assay: Induction of apoptosis in human NCI-H929 cells assessed as increase of p53 accumulation at 60 uM after 1.5 hrs by immunoblotting; assay type: functional, cell-based
[22] = tested on: NCI-H929; assay: Induction of apoptosis in human NCI-H929 cells assessed as changes in XIAP protein level at 60 uM after 3 hrs by immunoblotting; assay type: functional, cell-based
[23] = tested on: NCI-H929; assay: Induction of apoptosis in human NCI-H929 cells assessed as reduction of total RNA polymerase 2 level at 60 uM after 1.5 hrs by immunoblotting; assay type: functional, cell-based
[24] = tested on: NCI-H929; assay: Induction of apoptosis in human NCI-H929 cells assessed as fast migrating hypophosphorylated RNA polymerase 2A form at 30 uM after 1.5 hrs by immunoblotting; assay type: functional, cell-based
[25] = tested on: NCI-H929; assay: Induction of apoptosis in human NCI-H929 cells at 30 uM after 24 hrs using TUNEL staining by flow cytometry; assay type: functional
[26] = tested on: RPMI-8226; assay: Induction of apoptosis in human RPM18226 cells at 30 uM after 24 hrs using TUNEL staining by flow cytometry; assay type: functional
[27] = tested on: LP-1; assay: Induction of apoptosis in human LP-1 cells at 30 uM after 3 hrs using TUNEL staining by flow cytometry; assay type: functional, cell-based
[28] = tested on: LP-1; assay: Induction of apoptosis in human LP-1 cells assessed as reduction of Mcl-1 protein level at 30 uM after 3 hrs by immunoblotting; assay type: functional, cell-based
[29] = tested on: NCI-H929; assay: Induction of apoptosis in human NCI-H929 cells assessed as reduction of RNA polymerase 2 phosphoserine 2 level at 30 uM after 1.5 hrs by immunoblotting; assay type: functional, cell-based
[30] = tested on: NCI-H929; assay: Induction of apoptosis in human NCI-H929 cells assessed as reduction of Hdm2 level at 30 uM after 1.5 hrs by immunoblotting; assay type: functional, cell-based
[31] = tested on: NCI-H929; assay: Induction of apoptosis in human NCI-H929 cells assessed as reduction of RNA polymerase 2 phosphoserine 5 level at 30 uM after 1.5 hrs by immunoblotting; assay type: functional, cell-based
[32] = tested on: NCI-H929; assay: Induction of apoptosis in human NCI-H929 cells assessed as changes in survivin protein level at 30 uM after 3 hrs by immunoblotting; assay type: functional, cell-based
[33] = tested on: LP-1; assay: Cytotoxicity against human LP-1 cells assessed as reduction of cell viability at 20 to 30 uM treated for 24 hrs followed by washout measured after total 72 hrs growth period alamar blue assay relative to control; assay type: functional, cell-based
[34] = Inhibition of CDK9/cyclin T
[35] = tested on: NCI-H929; assay: Induction of apoptosis in human NCI-H929 cells assessed as dephosphorylation of pRb at S249/T252 at 30 uM after 1.5 hrs by immunoblotting; assay type: functional, cell-based
[36] = tested on: NCI-H929; assay: Induction of apoptosis in human NCI-H929 cells assessed as effect on total pRb level at 30 uM after 1.5 hrs by immunoblotting; assay type: functional, cell-based
[37] = tested on: NCI-H929; assay: Induction of apoptosis in human NCI-H929 cells assessed as changes in XIAP protein level at 30 uM after 3 hrs by immunoblotting; assay type: functional, cell-based
[38] = tested on: LP-1; assay: Cytotoxicity against human LP-1 cells assessed as reduction of cell viability at 20 to 30 uM treated for 8 hrs followed by washout measured after total 72 hrs growth period alamar blue assay relative to control; assay type: functional
[39] = tested on: RPMI-8226; assay: Induction of apoptosis in human RPM18226 cells assessed as reduction of Mcl-1 protein level at 30 uM after 3 hrs by immunoblotting; assay type: functional, cell-based
[40] = tested on: RPMI-8226; assay: Induction of apoptosis in human RPM18226 cells at 30 uM after 3 hrs using TUNEL staining by flow cytometry; assay type: functional, cell-based
[41] = tested on: LP-1; assay: Induction of apoptosis in human LP-1 cells at 30 uM after 24 hrs using TUNEL staining by flow cytometry; assay type: functional
[42] = tested on: LP-1; assay: Induction of apoptosis in human LP-1 cells assessed as reduction of RNA polymerase 2 phosphoserine 2 level at 30 uM after 1.5 hrs by immunoblotting; assay type: functional, cell-based
[43] = tested on: NCI-H929; assay: Induction of apoptosis in human NCI-H929 cells assessed as reduction of total RNA polymerase 2 level at 30 uM after 1.5 hrs by immunoblotting; assay type: functional, cell-based
[44] = tested on: NCI-H929; assay: Induction of apoptosis in human NCI-H929 cells at 30 uM after 3 hrs using TUNEL staining by flow cytometry; assay type: functional, cell-based
[45] = tested on: RPMI-8226; assay: Induction of apoptosis in human RPM18226 cells assessed as reduction of RNA polymerase 2 phosphoserine 2 level at 30 uM after 1.5 hrs by immunoblotting; assay type: functional, cell-based
[46] = tested on: NCI-H929; assay: Induction of apoptosis in human NCI-H929 cells assessed as reduction of Mcl-1 protein level at 30 uM after 3 hrs by immunoblotting; assay type: functional, cell-based
[47] = tested on: NCI-H929; assay: Induction of apoptosis in human NCI-H929 cells assessed as changes in Bcl-2 protein level at 30 uM after 3 hrs by immunoblotting; assay type: functional, cell-based
[48] = tested on: NCI-H929; assay: Cytotoxicity against human NCI-H929 cells assessed as reduction of cell viability at 20 to 30 uM treated for 16 hrs followed by washout measured after total 72 hrs growth period alamar blue assay relative to control; assay type: functional, cell-based
[49] = tested on: NCI-H929; assay: Induction of apoptosis in human NCI-H929 cells assessed as […] slow migrating hyperphosphorylated RNA polymerase 2O form at 30 uM after 1.5 hrs by immunoblotting; assay type: functional, cell-based
[50] = tested on: NCI-H929; assay: Induction of apoptosis in human NCI-H929 cells assessed as increase of p53 accumulation at 30 uM after 1.5 hrs by immunoblotting; assay type: functional, cell-based

Question: Which Activity [1] does the source give for `CC(C)C[C@@H](C=O)NC(=O)[C@H](CC(C)C)NC(=O)[C@H](CC(C)C)NC(=O)OCc1ccccc1` (Cbz-Leu-Leu-Leu-aldehyde) here?
Answer: inactive

Question: And the Activity [2]?
Answer: Active

Question: For `OC[C@H]1O[C@@H](n2cnc3cc(Cl)c(Cl)cc32)[C@H](O)[C@@H]1O` [DICHLORORIBOBENZIMIDAZOLE], which Activity [3] is on record?
Answer: Active

Question: And the IC50 [4]?
Answer: 46.8 µM

Question: What about the Activity [5] of the same compound?
Answer: Active

Question: And the IC50 [6]?
Answer: 41 µM

Question: And the Ratio IC50 [7]?
Answer: 25

Question: And the IC50 [8]?
Answer: 29.8 µM

Question: And the Activity [9]?
Answer: Active

Question: And the IC50 [10]?
Answer: 29.5 µM

Question: And the Activity [11]?
Answer: Active

Question: And the Ratio IC50 [12]?
Answer: 25

Question: What about the Activity [13] of the same compound?
Answer: inactive

Question: What about the IC50 [14] of the same compound?
Answer: 20.1 µM

Question: What about the Activity [15] of the same compound?
Answer: Active

Question: What about the Activity [16] of the same compound?
Answer: Active

Question: What about the Activity [17] of the same compound?
Answer: Active

Question: And the Activity [18]?
Answer: Active

Question: What about the Activity [19] of the same compound?
Answer: Active

Question: What about the Activity [20] of the same compound?
Answer: Active

Question: What about the Activity [21] of the same compound?
Answer: Active

Question: What about the Activity [22] of the same compound?
Answer: Active

Question: And the Activity [23]?
Answer: inactive

Question: Which results are given for `CC[C@H](CO)Nc1nc(NCc2ccccc2)c2ncn(C(C)C)c2n1` [SELICICLIB]?
Answer: Activity [24]: inactive; Activity [25]: >=60%; Activity [26]: >=60%; Activity [27]: Active; Activity [28]: Active; IC50 [4]: 19.5 µM; Activity [29]: Active; Activity [30]: Active; Activity [31]: Active; Activity [32]: Active; Activity [33]: Active; IC50 [6]: 17.9 µM; IC50 [34]: 0.81 µM; Activity [35]: Active; Activity [36]: inactive; IC50 [8]: 12.7 µM; Activity [37]: Active; Activity [38]: 50%; Activity [39]: Active; Activity [40]: Active; Activity [41]: >=60%; IC50 [10]: 18.5 µM; Activity [42]: Active; Activity [43]: inactive; Activity [44]: Active; Activity [45]: Active; Activity [46]: Active; Activity [47]: Active; Activity [48]: Active; Activity [49]: Active; Activity [50]: Active
